Columns and labels:
Venturia inaequalis = assay type: in vivo; conditions: 240 h, 100 ppm
From the text: Lösungsmittel: 24,5 Gewichtsteile Aceton 24,5 Gewichtsteile Dimethylacetamid Emulgator : 1 Gewichtsteil Alkyl-Aryl-Polyglykolether Zur […] und Emulgator und verdünnt das Konzentrat mit Wasser auf die gewünschte Konzentration. Zur Prüfung auf protektive Wirksamkeit werden junge Pflanzen mit der Wirkstoffzubereitung in der angegebenen Aufwandmenge besprüht. Nach Antrocknen des Spritzbelages werden die Pflanzen mit einer wäßrigen Konidiensuspension des […] Venturia inaequalis inokuliert und verbleiben dann 1 Tag bei ca. 20°C und 100% relativer Luftfeuchtigkeit in einer Inkubations-kabine. Die Pflanzen werden dann im Gewächshaus bei ca. 21°C und einer relativen Luftfeuchtigkeit von ca. 90% aufgestellt. 10 Tage nach der Inokulation erfolgt die Auswertung. Dabei bedeutet 0% ein Wirkungsgrad, der demjenigen der Kontrolle entspricht, während ein Wirkungsgrad von 100% bedeutet, daß kein Befall beobachtet wird.

Alternaria solani = experiment: Alternaria test (tomato) / protective; assay type: in vivo
[1] = system: Fusarium nivale (var.majus); assay type: in vivo; conditions: 120 h, 1000 ppm
From the text: […]-Dimethylacetamid Emulgator: 1 Gewichtsteil Alkylarylpolyglykolether Zur […] und Emulgator und verdünnt das Konzentrat mit Wasser auf die gewünschte Konzentration. Zur Prüfung auf protektive Wirksamkeit besprüht man junge Pflanzen mit der Wirkstoffzubereitung in der angegebenen Aufwandmenge. Nach Antrocknen des Spritzbelages werden die Pflanzen mit Sporen mit einer Sporensuspension von Fusarium nivale (var.majus) besprüht. Die Pflanzen werden in einer Gewächshauskammer unter […] Inkubationshaube bei 10°C und 100 % relativer Luftfeuchtigkeit gestellt. 5 Tage nach der Inokulation erfolgt die Auswertung. Dabei bedeutet 0 % ein Wirkungsgrad, der demjenigen der Kontrolle entspricht, während ein Wirkungsgrad von 100 % bedeutet, dass kein Befall beobachtet wird.

Fumonisin FB1 = experiment: Production of fumonisin FB1 by Fusarium proliferatum (microtiter plate, HPLC-MS/MS); assay type: cell-based; conditions: 144 h, read-out: pI50 FB1
Fusarium proliferatum = experiment: microbe, parasite or virus in culture; assay type: cell-based; conditions: 144 h, read-out: pI50 Wachstum
Puccinia recondita = experiment: Puccinia test (wheat) / protective; assay type: in vivo
Gibberella zeae = conditions: in vivo
Botrytis cinerea = assay type: in vivo; conditions: 48 h, 250 ppm
From the text: Lösungsmittel: 24,5 Gewichtsteile Aceton 24,5 Gewichtsteile Dimethylacetamid Emulgator : 1 Gewichtsteil Alkyl-Aryl-Polyglykolether Zur […] und Emulgator und verdünnt das Konzentrat mit Wasser auf die gewünschte Konzentration. Zur Prüfung auf protektive Wirksamkeit werden junge Pflanzen mit der Wirkstoffzubereitung in der angegebenen Aufwandmenge besprüht. Nach Antrocknen des Spritzbelages werden auf jedes Blatt 2 […] Botrytis cinerea […]. Die inokulierten Pflanzen werden in einer abgedunkelten Kammer bei ca. 20°C und 100% relativer Luftfeuchtigkeit aufgestellt. 2 Tage nach der Inokulation wird die Größe der Befallsflecken auf den Blä[…]. Dabei bedeutet 0% ein Wirkungsgrad, der demjenigen der Kontrolle entspricht, während ein Wirkungsgrad von 100% bedeutet, daß kein Befall beobachtet wird.

Pyricularia oryzae = assay type: in vivo; conditions: 250ppm active compound; rice, protective; evaluation 7 days after inoculation
Cochliobolus miyabeanus = experiment: Cochliobolus test (rice) / protective; assay type: in vivo; conditions: 250ppm active compound, evaluation 4 days after inoculation
[2] = 500ppm active compound, wheat, protective, evaluation 7-9 days after inoculation

| Structure (SMILES) | Wirkungsgrad (Puccinia recondita; 500 ppm) | chromatographic logP (physchem; pH 2.7) | also measured |
| --- | --- | --- | --- |
| O=c1[nH]c(Nc2ccccc2)ncc1Br [IX-1, 2-Anilino-5-brompyrimidin-4(3H)-on] |  |  | chromatographic logP (physchem; pH 2.3): 1.62 |
| FC(F)CNc1nc(Nc2ccccc2)ncc1Cl [Verbindung 1, 5-Chlor-N^4-(2,2-difluorethyl)-N^2-phenylpyrimidin-2,4-diamin] |  |  | Wirkungsgrad (Venturia inaequalis): ≥ 70%; Wirkungsgrad (Alternaria solani; 168 h, 500 ppm): ≥ 70%; Wirkungsgrad [1]: ≥ 70%; IC50 (Fumonisin FB1): 3.16 µM; IC50 (Fusarium proliferatum): 7.94 µM; chromatographic logP (physchem; pH 2.3): 1.89 |
| CC(Nc1nc(Nc2ccccc2)ncc1Cl)C(F)(F)F (stereo not shown) [Verbindung 2] |  |  | chromatographic logP (physchem; pH 2.3): 2.87 |
| FC(F)(F)CNc1nc(Nc2ccccc2)ncc1Cl [Verbindung 3, 5-Chlor-N^2-phenyl-N^4-(2,2,2-trifluorethyl)pyrimidin-2,4-diamin] | ≥ 70% |  | Wirkungsgrad (Venturia inaequalis): ≥ 70%; Wirkungsgrad [1]: ≥ 70%; IC50 (Fumonisin FB1): 2 µM; IC50 (Fusarium proliferatum): 12.6 µM; chromatographic logP (physchem; pH 2.3): 2.56; chromatographic logP (physchem; pH 7.8): 3.09 |
| N#Cc1cccc(Nc2ncc(Cl)c(NCC(F)(F)F)n2)c1 [Verbindung 4] |  | 2.67 | Wirkungsgrad (Alternaria solani; 168 h, 500 ppm): ≥ 70% |
| COc1cc(Nc2ncc(Cl)c(NCC(F)(F)F)n2)ccc1NC(C)=O [Verbindung 5] | ≥ 70% | 1.75 |  |
| COc1cccc(Nc2ncc(Cl)c(NCC(F)(F)F)n2)c1 [Verbindung 6] | ≥ 70% | 2.55 | IC50 (Fumonisin FB1): 1.58 µM; IC50 (Fusarium proliferatum): 3.16 µM |
| COc1ccc(Nc2ncc(Cl)c(NCC(F)(F)F)n2)cc1 [Verbindung 7] |  | 2.06 |  |
| N#Cc1ccc(Nc2ncc(Cl)c(NCC(F)(F)F)n2)cc1 [Verbindung 8] |  | 2.77 |  |
| FC(F)(F)CNc1nc(Nc2cccc(OC(F)(F)F)c2)ncc1Cl [Verbindung 9] |  | 3.72 |  |
| CS(=O)(=O)c1ccc(Nc2ncc(Cl)c(NCC(F)(F)F)n2)cc1 [Verbindung 10] |  | 2.21 |  |
| CN(C)S(=O)(=O)c1ccc(Nc2ncc(Cl)c(NCC(F)(F)F)n2)cc1 [Verbindung 11] |  | 2.64 |  |
| CSc1ccc(Nc2ncc(Cl)c(NCC(F)(F)F)n2)cc1Cl [Verbindung 12] |  | 3.55 |  |
| CC(=O)Nc1ccc(Nc2ncc(Cl)c(NCC(F)(F)F)n2)cc1 [Verbindung 13] | ≥ 70% | 1.54 |  |
| CC(=O)Nc1ccc(Nc2ncc(Cl)c(NCC(F)(F)F)n2)cc1Cl [Verbindung 14] |  | 2.04 |  |
| CCN(C(C)=O)c1ccc(Nc2ncc(Cl)c(NCC(F)(F)F)n2)cc1 [Verbindung 15] | ≥ 70% | 2.13 | Wirkungsgrad (Alternaria solani; 168 h, 500 ppm): ≥ 70% |
| CC(=O)N(C)c1ccc(Nc2ncc(Cl)c(NCC(F)(F)F)n2)cc1 [Verbindung 16] | ≥ 70% | 1.92 | Wirkungsgrad (Alternaria solani; 168 h, 500 ppm): ≥ 70% |
| O=C(Nc1ccc(Nc2ncc(Cl)c(NCC(F)(F)F)n2)cc1)C(F)(F)F [Verbindung 17] |  | 2.55 |  |
| CC1(C(=O)Nc2ccc(Nc3ncc(Cl)c(NCC(F)(F)F)n3)cc2)CC1 [Verbindung 18] |  | 2.16 |  |
| CC(=O)Nc1cccc(Nc2ncc(Cl)c(NCC(F)(F)F)n2)c1 [Verbindung 19] | ≥ 70% | 1.66 |  |
| C=C(C)C(=O)Nc1cccc(Nc2ncc(Cl)c(NCC(F)(F)F)n2)c1 [Verbindung 20] |  | 2.16 |  |
| CC(C)(C)C(=O)Nc1cccc(Nc2ncc(Cl)c(NCC(F)(F)F)n2)c1 [Verbindung 21] | ≥ 70% | 2.51 |  |
| CNC(=O)c1ccc(Nc2ncc(Cl)c(NCC(F)(F)F)n2)cc1 [Verbindung 22] |  | 1.66 |  |
| CNC(=O)c1cccc(Nc2ncc(Cl)c(NCC(F)(F)F)n2)c1 [Verbindung 23] | ≥ 70% | 1.66 |  |

| Structure (SMILES) | Wirkungsgrad (Puccinia recondita; 500 ppm) | chromatographic logP (physchem; pH 2.7) | also measured |
| --- | --- | --- | --- |
| CSc1cccc(Nc2ncc(Cl)c(NCC(F)(F)F)n2)c1 [Verbindung 24] | ≥ 70% | 3.04 | Wirkungsgrad [1]: ≥ 70%; IC50 (Fumonisin FB1): 31.6 µM; IC50 (Fusarium proliferatum): > 50.1 µM |
| CSc1ccc(Nc2ncc(Cl)c(NCC(F)(F)F)n2)cc1 [Verbindung 25] |  | 2.92 |  |
| O=S(=O)(c1cccc(Nc2ncc(Cl)c(NCC(F)(F)F)n2)c1)N1CCCCC1 [Verbindung 26] | ≥ 70% | 2.58 |  |
| CC(C)(C)C(=O)Cc1ccc(Nc2ncc(Cl)c(NCC(F)(F)F)n2)cc1 [Verbindung 27] |  | 3.17 | Wirkungsgrad (Alternaria solani; 168 h, 500 ppm): ≥ 70% |
| CC(=O)c1ccc(Nc2ncc(Cl)c(NCC(F)(F)F)n2)cc1 [Verbindung 28] |  | 2.51 |  |
| CC(=O)c1cccc(Nc2ncc(Cl)c(NCC(F)(F)F)n2)c1 [Verbindung 29] | ≥ 70% | 2.39 | Wirkungsgrad [1]: ≥ 70%; IC50 (Fumonisin FB1): 10 µM; IC50 (Fusarium proliferatum): > 50.1 µM |
| O=C1NC(=O)C(c2ccc(Nc3ncc(Cl)c(NCC(F)(F)F)n3)cc2)N1 (stereo not shown) [Verbindung 30] |  | 1.47 |  |
| COC(=O)Nc1ccc(Nc2ncc(Cl)c(NCC(F)(F)F)n2)cc1 [Verbindung 31] |  | 1.85 |  |
| CCOC(=O)Nc1ccc(Nc2ncc(Cl)c(NCC(F)(F)F)n2)cc1 [Verbindung 32] |  | 2.11 |  |
| CCOC(=O)Nc1cccc(Nc2ncc(Cl)c(NCC(F)(F)F)n2)c1 [Verbindung 33] |  | 2.36 |  |
| CNC(=O)Oc1cccc(Nc2ncc(Cl)c(NCC(F)(F)F)n2)c1 [Verbindung 34] |  |  | IC50 (Fumonisin FB1): 10 µM; IC50 (Fusarium proliferatum): > 50.1 µM; Wirkungsgrad (Gibberella zeae): ≥ 80% |
| COC(=O)Nc1cccc(Nc2ncc(Cl)c(NCC(F)(F)F)n2)c1 [Verbindung 35] | ≥ 70% | 2.06 | IC50 (Fumonisin FB1): 31.6 µM; IC50 (Fusarium proliferatum): 39.8 µM |
| CC(C)(CF)C(=O)Nc1cccc(Nc2ncc(Cl)c(NCC(F)(F)F)n2)c1 [Verbindung 37] | ≥ 70% | 2.42 |  |
| CC(=O)Nc1cc(Nc2ncc(Cl)c(NCC(F)(F)F)n2)ccc1C [Verbindung 38] | ≥ 70% | 1.61 |  |
| COc1cccc(Nc2ncc(Cl)c(NCC(F)F)n2)c1 [Verbindung 39] |  | 1.96 | IC50 (Fumonisin FB1): 3.16 µM; IC50 (Fusarium proliferatum): 10 µM |
| CN(C)C(=O)c1ccc(Nc2ncc(Cl)c(NCC(F)F)n2)cc1 [Verbindung 40] | ≥ 70% | 1.55 |  |
| C=CCNC(=O)c1ccc(Nc2ncc(Cl)c(NCC(F)F)n2)cc1 [Verbindung 41] | ≥ 70% | 1.84 |  |
| CC(CC(F)(F)F)Nc1nc(Nc2ccccc2)ncc1Br (stereo not shown) [Verbindung 42, 5-Brom-N^2-phenyl-N^4-(4,4,4-trifluorbutan-2-yl)pyrimidin-2,4-diamin] |  | 2.4 |  |
| N#CCc1cccc(Nc2ncc(Cl)c(NCC(F)F)n2)c1 [Verbindung 43] | ≥ 70% | 1.89 | Wirkungsgrad (Botrytis cinerea): ≥ 70%; Wirkungsgrad (Alternaria solani; 168 h, 500 ppm): ≥ 70%; IC50 (Fumonisin FB1): 1.26 µM; IC50 (Fusarium proliferatum): 6.31 µM; Wirkungsgrad (Pyricularia oryzae): ≥ 80%; Wirkungsgrad (Cochliobolus miyabeanus): ≥ 80% |
| Cc1cccc(Nc2ncc(Cl)c(NCC(F)(F)F)n2)c1 [Verbindung 44] |  | 2.88 | IC50 (Fumonisin FB1): 1.26 µM; IC50 (Fusarium proliferatum): 20 µM |
| Cc1cccc(Nc2ncc(Cl)c(NCC(F)F)n2)c1 [Verbindung 45] | ≥ 70% | 2.27 | IC50 (Fumonisin FB1): 1.58 µM; IC50 (Fusarium proliferatum): 5.01 µM |
| O=Cc1cccc(Nc2ncc(Cl)c(NCC(F)(F)F)n2)c1 [Verbindung 46] |  |  | Wirkungsgrad (Alternaria solani; 500ppm active compound, tomato, protective, evaluation 7 days after inoculation): ≥ 70%; Wirkungsgrad (Puccinia recondita; [2]): ≥ 70%; chromatographic logP (physchem; pH 7.8): 2.67 |
| O=Cc1cccc(Nc2ncc(Cl)c(NCC(F)F)n2)c1 [Verbindung 47] |  |  | Wirkungsgrad (Puccinia recondita; [2]): ≥ 70%; chromatographic logP (physchem; pH 7.8): 2.49 |
| CN(C)C(=O)c1ccc(Nc2ncc(Cl)c(NCC(F)(F)F)n2)cc1 [Verbindung 48] |  | 1.93 | Wirkungsgrad (Alternaria solani; 168 h, 500 ppm): ≥ 70% |
